Measurements reported in the supplement of paper PMC11061612.

Legend:
[1] = compound: COc1cccc2c1C(=O)c1c(O)c3c(c(O)c1C2=O)C[C@@](O)(C(=O)CO)C[C@@H]3O[C@H]1C[C@H](N)[C@H](O)[C@H](C)O1 [Doxorubicin]; conditions: max 1 µM
Method in brief: (§1)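 Cancer cell lines were dosed for 72 hours (final DMSO typically 0.2%) after 24 hours at 37°C and 5% CO2 in 1536-well plates containing 7.5 μl DMEM/F12 or RPMI with 10% FBS. Viability came from CellTiter-Glo 2.0 luminescence, scaled between blank-well and DMSO-well means, and dose responses were fitted to a two-parameter logistic curve with a non-linear mixed effects model. The single-agent IC50 was obtained from this fit.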

[2] = compound: CC(=O)O[C@H]1C(=O)[C@@]2(C)[C@H]([C@H](OC(=O)c3ccccc3)[C@]3(O)C[C@H](OC(=O)[C@H](O)[C@@H](NC(=O)c4ccccc4)c4ccccc4)C(C)=C1C3(C)C)[C@]1(OC(C)=O)CO[C@@H]1C[C@@H]2O [Paclitaxel]; conditions: max 3 µM
Method in brief: as §1

[3] = compound: C[C@@H](c1ccc2nccn2c1)n1nnc2ncc(-c3cnn(C)c3)nc21 [Savolitinib]; conditions: max 1 µM
Method in brief: as §1

[4] = compound: CN(C)CCCOc1ccc(-c2ccc3ncc4c(c3c2)n(C2CCOCC2)c(=O)n4C)cn1 [AZD0156]; conditions: max 3 µM
Method in brief: as §1

[5] = compound: COc1cc(Nc2ncc3c(n2)-c2ccc(Cl)cc2C(c2c(F)cccc2OC)=NC3)ccc1C(=O)O [Alisertib]; conditions: max 10 µM
Method in brief: as §1

[6] = compound: CCN(CCO)CCCOc1ccc2c(Nc3cc(CC(=O)Nc4cccc(F)c4)[nH]n3)ncnc2c1 [AZD2811]; conditions: max 1 µM
Method in brief: as §1

[7] = compound: Cc1nc(-c2cn3c(n2)-c2ccc(-c4cnn(C(C)(C)C(N)=O)c4)cc2OCC3)n(C(C)C)n1 [Taselisib]; conditions: max 10 µM
Method in brief: as §1

[8] = compound: CCc1c2c(nc3ccc(O)cc13)-c1cc3c(c(=O)n1C2)COC(=O)[C@]3(O)CC [SN-38]; conditions: max 0.3 µM
Method in brief: as §1

[9] = compound: C1CC(C1)(C(=O)[O-])C(=O)[O-].N.N.[Pt+2] [Carboplatin]; conditions: max 10 µM
Method in brief: as §1

[10] = compound: COc1cc([C@@H]2c3cc4c(cc3[C@@H](O[C@@H]3O[C@@H]5CO[C@@H](C)O[C@H]5[C@H](O)[C@H]3O)[C@H]3COC(=O)[C@H]23)OCO4)cc(OC)c1O [Etoposide]; conditions: max 10 µM
Method in brief: as §1

[11] = compound: C[C@@H]1COCCN1C2=NC(=NC(=C2)C3(CC3)[S@](=N)(=O)C)C4=C5C=CNC5=NC=C4 [AZD6738]; conditions: max 10 µM
Method in brief: as §1

[12] = compound: O=c1[nH]cc(F)c(=O)[nH]1 [5-Fluorouracil]; conditions: max 20 µM
Method in brief: as §1

[13] = compound: CC1(C)CCC(CN2CCN(c3ccc(C(=O)NS(=O)(=O)c4ccc(NCC5CCOCC5)c([N+](=O)[O-])c4)c(Oc4cnc5[nH]ccc5c4)c3)CC2)=C(c2ccc(Cl)cc2)C1 [Venetoclax]; conditions: max 1 µM
Method in brief: as §1

[14] = compound: COc1cc2ncnc(Nc3ccc(F)c(Cl)c3)c2cc1OCCCN1CCOCC1 [Gefitinib]; conditions: max 10 µM
Method in brief: as §1

[15] = compound: C1CN(CCC1(C(=O)N[C@@H](CCO)C2=CC=C(C=C2)Cl)N)C3=NC=NC4=C3C=CN4 [AZD5363]; conditions: max 10 µM
Method in brief: as §1

[16] = compound: CC(C)n1c(=O)n(C)c2cnc3cc(F)c(-c4ccc(OCCCN5CCCCC5)nc4)cc3c21 [AZD1390]; conditions: max 0.3 µM
Method in brief: as §1

[17] = compound: COc1cccc(OCCCN)c1-c1cc(Nc2cnc(C#N)cn2)n[nH]1 [Prexasertib]; conditions: max 1 µM
Method in brief: as §1

[18] = compound: CN(CC[C@H](CSC1=CC=CC=C1)NC2=C(C=C(C=C2)S(=O)(=O)NC(=O)C3=CC=C(C=C3)N4CCC(CC4)[C@H](C5=CC=CC=C5C6=CC=C(C=C6)Cl)O)S(=O)(=O)C(F)(F)F)CCO [AZD4320]; conditions: max 1 µM
Method in brief: as §1

[19] = compound: C=CCn1c(=O)c2cnc(Nc3ccc(N4CCN(C)CC4)cc3)nc2n1-c1cccc(C(C)(C)O)n1 [AZD1775]; conditions: max 3 µM
Method in brief: as §1

[20] = compound: N#Cc1cnc(Nc2cc(NC[C@H]3CNCCO3)c(C(F)(F)F)cn2)cn1 [SRA737]; conditions: max 10 µM
Method in brief: as §1

[21] = compound: NC1(c2ccc(-c3nc4ccn5c(=O)[nH]nc5c4cc3-c3ccccc3)cc2)CCC1 [MK-2206]; conditions: max 10 µM
Method in brief: as §1

[22] = compound: CS(=O)(=O)CCNCc1ccc(-c2ccc3ncnc(Nc4ccc(OCc5cccc(F)c5)c(Cl)c4)c3c2)o1 [Lapatinib]; conditions: max 10 µM
Method in brief: as §1

[23] = compound: COc1nnc2ccc(N3CCC(c4ccc(OCCN5CCN(C)C(=O)[C@H]5C)cc4)CC3)nn12 [AZD5153]; conditions: max 1 µM
Method in brief: as §1

[24] = compound: Cc1cc2ncnn2cc1Nc1ncc2c(n1)n(C1CCOCC1)c(=O)n2C [AZD7648]; conditions: max 10 µM
Method in brief: as §1

[25] = compound: Cc1c2c(nn1C)CSCc1cc(n(C)n1)CSc1cc(c3ccccc3c1)OCCCc1c(C(=O)O)n(C)c3c-2c(Cl)ccc13 [AZD5991]; conditions: max 1 µM
Method in brief: as §1

[26] = compound: CC(=O)Nc1cccc(-n2c(=O)n(C3CC3)c(=O)c3c(Nc4ccc(I)cc4F)n(C)c(=O)c(C)c32)c1 [Trametinib]; conditions: max 1 µM
Method in brief: as §1

[27] = compound: CC1=C(C(=CC=C1)Cl)NC(=O)C2=CN=C(S2)NC3=CC(=NC(=N3)C)N4CCN(CC4)CCO [Dasatinib]; conditions: max 2 µM
Method in brief: as §1

[28] = compound: O=C(Nc1ccc2[nH]nc(-c3ccncc3)c2c1)[C@@H]1CCN(CC(=O)N2CCN(c3ccc(-c4ncccn4)cc3)CC2)C1; conditions: max 5 µM
Method in brief: as §1

[29] = compound: Cn1cnc2c(F)c(Nc3ccc(Br)cc3Cl)c(C(=O)NOCCO)cc21 [Selumetinib]; conditions: max 10 µM
Method in brief: as §1

[30] = compound: C[C@@H](Nc1cc(F)cc(F)c1)c1cc(C(=O)N(C)C)cc2c(=O)cc(N3CCOCC3)oc12 [AZD8186]; conditions: max 10 µM
Method in brief: as §1

[31] = compound: C[C@@H](Oc1cc(-c2cnn(C3CCNCC3)c2)cnc1N)c1c(Cl)ccc(F)c1Cl [Crizotinib]; conditions: max 10 µM
Method in brief: as §1

[32] = compound: CC(=O)c1c(C)c2cnc(Nc3ccc(N4CCNCC4)cn3)nc2n(C2CCCC2)c1=O [Palbociclib]; conditions: max 10 µM
Method in brief: as §1

[33] = compound: Nc1ccn([C@@H]2O[C@H](CO)[C@@H](O)C2(F)F)c(=O)n1 [Gemcitabine]; conditions: max 0.3 µM
Method in brief: as §1

[34] = compound: CC1=CN2[C@@H](C1)C=NC3=CC(=C(C=C3C2=O)OC)OCCCCCOC4=C(C=C5C(=C4)N=C[C@@H]6CC(=CN6C5=O)C)OC [SG3199]; conditions: max 0.001 µM
Method in brief: as §1

[35] = compound: O=C(c1cc(Cc2n[nH]c(=O)c3ccccc23)ccc1F)N1CCN(C(=O)C2CC2)CC1 [Olaparib]; conditions: max 10 µM
Method in brief: as §1

Cell Line: NCI-H520 (Squamous Cell Lung Carcinoma)
- IC50, cell viability 72 h [1]: > 1 µM
- IC50, cell viability 72 h [2]: 0.0431 µM
- IC50, cell viability 72 h [3]: > 1 µM
- IC50, cell viability 72 h [4]: > 3 µM
- IC50, cell viability 72 h [5]: 8.62 µM
- IC50, cell viability 72 h [6]: > 1 µM
- IC50, cell viability 72 h [7]: 2.34 µM
- IC50, cell viability 72 h [8]: 0.046 µM
- IC50, cell viability 72 h [9]: > 10 µM
- IC50, cell viability 72 h [10]: > 10 µM
- IC50, cell viability 72 h [11]: 7.34 µM
- IC50, cell viability 72 h [12]: > 20 µM
- IC50, cell viability 72 h [13]: > 1 µM
- IC50, cell viability 72 h [14]: > 10 µM
- IC50, cell viability 72 h [15]: 4.01 µM
- IC50, cell viability 72 h [16]: > 0.3 µM
- IC50, cell viability 72 h [17]: 0.0443 µM
- IC50, cell viability 72 h [18]: > 1 µM
- IC50, cell viability 72 h [19]: 1.03 µM
- IC50, cell viability 72 h [20]: > 10 µM
- IC50, cell viability 72 h [21]: 1.87 µM
- IC50, cell viability 72 h [22]: > 10 µM
- IC50, cell viability 72 h [23]: 0.923 µM
- IC50, cell viability 72 h [24]: > 10 µM
- IC50, cell viability 72 h [25]: > 1 µM
- IC50, cell viability 72 h [26]: > 1 µM
- IC50, cell viability 72 h [27]: > 2 µM
- IC50, cell viability 72 h [28]: > 5 µM
- IC50, cell viability 72 h [29]: > 10 µM
- IC50, cell viability 72 h [30]: 4.99 µM
- IC50, cell viability 72 h [31]: > 10 µM
- IC50, cell viability 72 h [32]: 4.77 µM
- IC50, cell viability 72 h [33]: 0.0936 µM
- IC50, cell viability 72 h [34]: > 0.001 µM
- IC50, cell viability 72 h [35]: > 10 µM

Cell Line: NCI-H526 (Small Cell Lung Carcinoma)
- IC50, cell viability 72 h [1]: 0.107 µM
- IC50, cell viability 72 h [2]: 0.00908 µM
- IC50, cell viability 72 h [3]: > 1 µM
- IC50, cell viability 72 h [4]: > 3 µM
- IC50, cell viability 72 h [5]: 9.42 µM
- IC50, cell viability 72 h [6]: > 1 µM
- IC50, cell viability 72 h [7]: > 10 µM
- IC50, cell viability 72 h [8]: 0.00257 µM
- IC50, cell viability 72 h [9]: > 10 µM
- IC50, cell viability 72 h [10]: 0.713 µM
- IC50, cell viability 72 h [11]: 10 µM
- IC50, cell viability 72 h [12]: 12.8 µM
- IC50, cell viability 72 h [13]: 0.246 µM
- IC50, cell viability 72 h [14]: > 10 µM
- IC50, cell viability 72 h [15]: > 10 µM
- IC50, cell viability 72 h [16]: > 0.3 µM
- IC50, cell viability 72 h [17]: 0.0838 µM
- IC50, cell viability 72 h [18]: 0.0434 µM
- IC50, cell viability 72 h [19]: 0.642 µM
- IC50, cell viability 72 h [20]: > 10 µM
- IC50, cell viability 72 h [21]: > 10 µM
- IC50, cell viability 72 h [22]: > 10 µM
- IC50, cell viability 72 h [23]: 0.0801 µM
- IC50, cell viability 72 h [24]: > 10 µM
- IC50, cell viability 72 h [25]: > 1 µM
- IC50, cell viability 72 h [26]: > 1 µM
- IC50, cell viability 72 h [27]: > 2 µM
- IC50, cell viability 72 h [28]: > 5 µM
- IC50, cell viability 72 h [29]: > 10 µM
- IC50, cell viability 72 h [30]: > 10 µM
- IC50, cell viability 72 h [31]: 7.94 µM
- IC50, cell viability 72 h [32]: > 10 µM
- IC50, cell viability 72 h [33]: 0.251 µM
- IC50, cell viability 72 h [34]: > 0.001 µM
- IC50, cell viability 72 h [35]: > 10 µM
